Measured values from patent US20200384072A1, “THERAPY OF IONIZING RADIATION-INDUCED DISORDERS” (SCK-CEN, priority 2019, published 2020).

Legend:
[1] = molecular target: T1, Cx43 hemichannels (Homo sapiens, UniProt P17302); test: Extracellular ATP release after irradiation, TICAE cells; format: cell-based
T1 construct: endogenous in cells; host or cells: TICAE and TIME cells (human endothelial cell lines)
Experimental: Hemichannels are an ATP release pathway and we therefore determined extracellular ATP after irradiation. To that purpose, TICAE and TIME cells were seeded in a 96-well plate at a density of 1×10^5 cells/well and 0.3×10^5 cells/well, respectively, in six to eight biological replicates. Three days later, cells reached 100% confluence. At 30 minutes before irradiation, cells were refreshed with 100 μl medium alone or with medium supplemented with 100 μM TAT-Gap19 (Genosphere Biotechnologies, Paris, France) to block the Cx43 hemichannels. For fractionated irradiation, cells were refreshed with 150 μl medium/well. At different time points after irradiation (1, 6 and 72 h), 1:5 ATP assay mix dissolved in ATP mix dilution buffer (Sigma-Aldrich Co. LCC, Diegem, Belgium) was added to each well. Extracellular ATP release was assessed by measuring the luminescence signal received after oxidation of luciferin and ATP to oxyluciferin and AMP using the CLARIOstar® microplate reader (BMG Labtech, Temse, Belgium). Experiments were corrected for baseline ATP signal in medium in the absence or presence of TAT-Gap19.

[2] = system: TIME cells; test: Cell death, Annexin V and Caspase 3/7 live cell imaging, TIME cells; format: cell-based, human
Experimental: TICAE and TIME cells were seeded in 96 well plates at a density of 10000 cells/well in 8 biological replicates. After three days, cells were at 100% confluence. At 30 minutes before X-ray exposure, cells were refreshed with 200 μl medium supplemented with Caspase 3/7 reagent (1:1000 dilution) and Annexin V reagent (1:200 dilution) (Essen Bioscience, United Kingdom) with or without 100 μM TAT-Gap19 (Genosphere Biotechnologies, Paris, France). Fluorescence signals were measured from 4 h until 100 h after irradiation by imaging every 2 hours using the IncuCyte ZOOM® system (Essen BioScience, Ann Arbor, Mich., USA). Different channels (TRITC, FITC and phase contrast) and a 10× objective were used. Spectral unmixing set as 8% of red removed from green was applied. The IncuCyte software's processing definition was set to recognize red (Annexin V) and green (Caspase 3/7) stained cells, making use of the Top-Hat background subtraction method. Fluorescence signal was normalized to cell count.

[3] = system: TICAE cells; test: Senescence-associated β-galactosidase CPRG assay, TICAE cells; format: cell-based, human
Experimental: (§1) TICAE and TIME cells were seeded in 96 well plates at a density of 10000 cells/well in 16 replicates. Three days after, cells were at 100% confluent. At 30 minutes before X-ray exposure, the cells were refreshed with 150 μl medium alone or with medium supplemented with 100 μM TAT-Gap19 (Genosphere Biotechnologies, Paris, France). For 7 d and 9 d post irradiation experiments, the medium was refreshed once, while for 14 d post irradiation experiment the medium was refreshed twice with 200 μl medium alone or with medium supplemented with 100 μM TAT-Gap19. At 7, 9 and 14 days post irradiation, cell number was determined using an Incucyte® ZOOM life cell analysis system and related software (Essen Bioscience, Hertfordshire, United Kingdom). Afterwards, the senescence associated β-galactosidase activity in the cells was determined using the chlorophenol red β-D-galactopyranoside (CPRG) assay as described previously. The cells were washed with PBS and lysed using M-PER™ buffer (Thermo Fisher Scientific, Asse, Belgium). Subsequently, 1×CPRG substrate (2 mM Chloropenol Red β-D-galactopyranoside in CPRG assay buffer containing 50 mM KPO4, 1 mM MgCl2, pH 6) (Sigma-Aldrich, Overijse, Belgium) was added to each well and the plates incubated for 18 h at 37° C. without CO2. A CLARIOstar® microplate reader (BMG Labtech, Temse, Belgium) was used to measure the absorbance at 570 nm.

[4] = system: TIME cells; test: Senescence-associated β-galactosidase CPRG assay, TIME cells; format: cell-based, human
Experimental: as §1

[5] = system: mice liver; conditions: mice treated with thioacetamide to induce liver fibrosis; cited from earlier work
[6] = 100 μM TAT-Gap19, 0.1 Gy and 5 Gy, 14 d p.i.

T1 sequence (P17302 whole entry): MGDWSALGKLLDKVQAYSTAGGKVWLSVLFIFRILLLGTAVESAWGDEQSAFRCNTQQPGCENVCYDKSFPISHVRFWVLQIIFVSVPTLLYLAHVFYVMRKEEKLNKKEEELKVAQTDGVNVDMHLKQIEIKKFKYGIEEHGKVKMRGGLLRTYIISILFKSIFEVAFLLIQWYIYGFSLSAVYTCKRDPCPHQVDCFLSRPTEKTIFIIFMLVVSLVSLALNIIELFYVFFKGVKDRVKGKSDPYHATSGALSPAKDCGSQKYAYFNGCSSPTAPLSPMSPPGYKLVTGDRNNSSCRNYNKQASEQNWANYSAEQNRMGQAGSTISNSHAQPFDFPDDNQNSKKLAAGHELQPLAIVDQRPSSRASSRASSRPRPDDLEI

TAT-Gap19: connexin mimetic peptide, amino-acids 128-136 of the CL of Cx43 (SEQ ID NO: 2), Gap19 linked to TAT sequence; Cx43 hemichannel inhibitor (YGRKKRRQRRRKQIEIKKFK)
radiation-induced ATP release ([1]; 100 μM TAT-Gap19, fractionated irradiation 0.1 and 5 Gy, 72 h p.i.): significantly inhibited the 5 Gy responses only | radiation-induced ATP release ([1]; 100 μM TAT-Gap19, single 0.1 and 5 Gy, 1 h p.i.): no inhibition was observed | radiation-induced ATP release ([1]; 100 μM TAT-Gap19, single 5 Gy, all cases except 1 h p.i. (6 h, 72 h)): significantly reduced the ATP release | Annexin V ([2]; 100 μM TAT-Gap19, 0 Gy, 12-24 h p.i. time window): transiently reduced Annexin V | Annexin V elevation ([2]; 100 μM TAT-Gap19, 5 Gy, 4-48 h p.i. time window): significantly reduced Annexin V elevation | SA β-gal activity ([3]; 100 μM TAT-Gap19, 0 Gy and 5 Gy, 9 d p.i.): significantly reduced SA β-gal activity | SA β-gal activity (radiation responses) [3, 6]: significantly inhibited these responses | SA β-gal activity ([3]; 100 μM TAT-Gap19, control, 0.1 Gy and 5 Gy, 7 d p.i.): significantly reduced SA β-gal activity | SA β-gal activity ([4]; 100 μM TAT-Gap19, 0 Gy, 0.1 Gy and 5 Gy, 7 d p.i.): significantly reduced SA β-gal activity in all conditions | SA β-gal activity (radiation responses) [4, 6]: significantly inhibited these responses | SA β-gal activity ([4]; 100 μM TAT-Gap19, 5 Gy, 9 d p.i.): significantly reduced SA β-gal activity | SA β-gal activity ([4]; 100 μM TAT-Gap19, control condition, 9 d p.i.): unexpectedly increased SA β-gal activity | SOD activity in liver [5]: increased SOD activity
